Test [1] has as its system HIV-1 LTR G-quadruplex template (G4 LTR Stop). Briefly: Taq polymerase stop assay. It counts as biochemical. To be noted: for Fold change, all regions (A, B and C) together: normalized against control. As to the method:
To address specifically the positions in the HIV-1 promoter region that are affected by the binding of G4-stabilizing agents, we performed a Taq polymerase stop assay. The wild-type LTR oligonucleotide was extended at the […] to include a primer-annealing region and used as a template for a single-cycle Taq polymerase reaction. The elongation of the radioactively labelled primer was performed at 45 °C in the presence or absence of the tested compounds and controls.
A Taq polymerase stop assay was carried out as described in a previous study. Briefly, the primer (G4 LTR primer, Supplementary Table S1) was 5′-end labelled with [γ-^32P]ATP using T4 polynucleotide kinase at 37 °C for 30 min. The T4 polynucleotide kinase was then inactivated by incubation at 65 °C for 5 min. The radioactively labelled primer was column-purified and stored at − 20 °C for further use. The labelled primer (1.7 pmol) was annealed to the template (2.1 pmol) in the LiCaco buffer and extended with the Go Taq DNA polymerase (2U/reaction, Promega) at 45 °C for 45 min. Samples were incubated with G-quadruplex-ligands at 45 °C for 45 min before DNA polymerase addition. The reactions were stopped by a denaturing solution (80% formamide, 10% glycerol, 0.025% xylen cyanol, 0.025% bromphenol blue and 10 mM EDTA pH 8); extension products were separated on 15% denaturing gel and visualized by phosphorimaging. The pixel intensity of bands was calculated using 1D gel analysis in ImageQuant TL software version 8.1 (GE HealthCare) after automatic background subtraction by Rolling Ball method.

Test [2] concerns G-quadruplexes in the HIV-1 LTR (G4 LTR FRET oligonucleotide). Briefly: FRET melting assay. It counts as binding. To be noted: 2 μM compound, 0.2 μM oligonucleotide.
Where [3] appears, read: 2.5 µM, pixel intensity normalized against negative control.

What is called ΔTm is the change in melting temperature against a reference sample. With `NCCOc1cc(C(=O)Nc2cc(OCCN)c3ccccc3n2)nc(C(=O)Nc2cc(OCCN)c3ccccc3n2)c1` [PDS, pyridostatin, reference compound], the “Fold change, all regions (A, B and C) together” value in test [1] (1 μM) came to 2.0. The “Fold change, all regions (A, B and C) together” value in test [1] (2.5 μM) was 2.4. In addition, in test [1] (setting [3]), the “Fold change: A (G-patch 6′)” value amounted to 2.6, the “Fold change: B (G-patch 6)” value is 2.7 and the “Fold change: C (G-patch 5)” value is on record as 1.6. Also, the Tm in test [2] (100 mM KCl, mean and standard error, three experiments) came out at 93 ± 13 °C. Also, in test [2] (average Tm minus average Tm of PBS), the ΔTm was found to be 42 °C.
